Laboratory results published in patent publication US20100016328A1, “PTERIN ANALOGS” (BioMarin Pharmaceutical, Inc., priority 2007, published 2010).

Key:
Type in all cases: in vitro ADME
[1] = Stability in simulated gastric fluid; details: concentration of compound remaining over a 60 minute period; FIG. 5
Procedure: (§1) The stability of various compounds as disclosed herein were tested in human and rat and in simulated gastric fluid. Each compound was tested over an hour period for concentration of the compound remaining at each time point. The results are shown in FIGS. 3 (human plasma stability), 4 (rat plasma stability), and 5 (simulated gastric fluid stability) for the compounds of Example 2, 3, 4, and 20.

Stability in rat plasma = details: concentration of compound remaining over a 60 minute period; FIG. 4
Procedure: as §1

[2] = Stability in human plasma; details: concentration of compound remaining over a 60 minute period; FIG. 3
Procedure: as §1

CCCC(=O)O[C@@H]([C@H](C)OC(=O)CCC)[C@H]1CNc2nc(N)[nH]c(=O)c2N1C(=O)CCC [Example 4, Butyric acid 1-(2-amino-5-butyryl-4-oxo-3,4,5,6,7,8-hexahydro-pteridin-6-yl)-2-butyryloxy-propyl ester]
high level of stability: stability in simulated gastric fluid [1] | stability in rat plasma (Stability in rat plasma) | stability in human plasma [2]
